According to ChEMBL document CHEMBL4041483, “Aldgamycins J-O, 16-Membered Macrolides with a Branched Octose Unit from Streptomycetes sp. and Their Antibacterial Activities” (2016):
Converted amounts (≈) assume the structure as drawn.

Legend:
Format in all cases: functional
[1] = tested on: Aspergillus niger; assay: Antifungal activity against Aspergillus niger R330 incubated at room temperature for 30 mins followed by incubation at 32 degC for 12 hrs by two-fold dilution method
[2] = tested on: Candida albicans; assay: Antifungal activity against Candida albicans FIM709 incubated at room temperature for 30 mins followed by incubation at 32 degC for 12 hrs by two-fold dilution method
[3] = tested on: Staphylococcus aureus; assay: Antibacterial activity against Staphylococcus aureus 209P incubated at room temperature for 30 mins followed by incubation at 37 degC for 12 hrs by two-fold dilution method
[4] = tested on: Escherichia coli; assay: Antibacterial activity against Escherichia coli ATCC 0111 incubated at room temperature for 30 mins followed by incubation at 37 degC for 12 hrs by two-fold dilution method

| Compound | MIC [1] [µg/mL] | MIC [2] [µg/mL] | MIC [3] [µg/mL] | MIC [4] [µg/mL] |
| --- | --- | --- | --- | --- |
| CO[C@@H]1[C@H](O)[C@@H](C)O[C@@H](OC[C@H]2[C@@H]3O[C@H]3CCC(=O)[C@@](C)(O)C[C@H](C)[C@H](O[C@@H]3O[C@H](C)C[C@](O)([C@H](C)O)[C@H]3O)[C@@H](C)/C=C/C(=O)O[C@@H]2C)[C@@H]1OC | > 1000 | > 1000 | 500 (≈ 682 µM) | > 1000 |
| CO[C@@H]1[C@H](O)[C@@H](C)O[C@@H](OC[C@H]2[C@@H]3O[C@H]3/C=C/C(=O)[C@@](C)(O)C[C@H](C)[C@H](O[C@@H]3O[C@H](C)C[C@H](OC)[C@H]3O)[C@@H](C)/C=C/C(=O)O[C@@H]2C)[C@@H]1OC | > 500 | > 500 | 4 (≈ 5.71 µM) | > 500 |
| CO[C@@H]1[C@H](O)[C@@H](C)O[C@@H](OC[C@H]2/C=C/CCC(=O)[C@@](C)(O)C[C@H](C)[C@H](O[C@@H]3O[C@H](C)C[C@](O)([C@H](C)O)[C@H]3O)[C@@H](C)/C=C/C(=O)O[C@@H]2C)[C@@H]1OC | > 500 | > 500 | 32 (≈ 44.6 µM) | > 500 |
| CO[C@@H]1[C@H](O)[C@@H](C)O[C@@H](OC[C@H]2/C=C/CCC(=O)[C@H](C)C[C@H](C)[C@H](O[C@@H]3O[C@H](C)C[C@](O)([C@H](C)O)[C@H]3O)[C@@H](C)/C=C/C(=O)O[C@@H]2C)[C@@H]1OC | > 500 | > 500 | 500 (≈ 713 µM) | > 500 |
| C[C@@H]1C[C@@H]([C@H](O)CC2CC(=O)NC(=O)C2)C(=O)[C@@H](C)C1 [CYCLOHEXIMIDE] | 32 (≈ 114 µM) | 64 (≈ 227 µM) |  |  |
| NC[C@H]1O[C@H](O[C@H]2[C@H](O)[C@@H](O[C@H]3O[C@H](CO)[C@@H](O)[C@H](N)[C@H]3O)[C@H](N)C[C@@H]2N)[C@H](N)C[C@@H]1O [TOBRAMYCIN] |  |  | 0.2 (≈ 0.428 µM) | 2 (≈ 4.28 µM) |

Other lines, results leading:

| MIC [1] [µg/mL] | MIC [2] [µg/mL] | MIC [3] [µg/mL] | MIC [4] [µg/mL] | Compound |
| --- | --- | --- | --- | --- |
| > 500 | > 500 | 32 (≈ 44 µM) | > 500 | CO[C@@H]1[C@H](O)[C@@H](C)O[C@@H](OC[C@H]2/C=C/CCC(=O)[C@H](C)C[C@H](C)[C@H](O[C@@H]3O[C@H](C)C[C@@]4(OC(=O)O[C@H]4C)[C@H]3O)[C@@H](C)/C=C/C(=O)O[C@@H]2C)[C@@H]1OC |
| > 1000 | > 1000 | 125 (≈ 179 µM) | > 1000 | CO[C@@H]1[C@H](O)[C@@H](C)O[C@@H](OC[C@H]2/C=C/C=C/C(=O)[C@H](C)C[C@H](C)[C@H](O[C@@H]3O[C@H](C)C[C@](O)([C@H](C)O)[C@H]3O)[C@@H](C)/C=C/C(=O)O[C@@H]2C)[C@@H]1OC |
| > 1000 | > 1000 | > 1000 | > 1000 | CO[C@@H]1[C@H](O)[C@@H](C)O[C@@H](OC[C@H]2[C@@H]3O[C@H]3CCC(=O)[C@H](C)C[C@H](C)[C@H](O[C@@H]3O[C@H](C)C[C@](O)([C@H](C)O)[C@H]3O)[C@@H](C)/C=C/C(=O)O[C@@H]2C)[C@@H]1OC |
| > 500 | > 500 | 16 (≈ 22.4 µM) | > 500 | CO[C@@H]1[C@H](O)[C@@H](C)O[C@@H](OC[C@H]2/C=C/C=C/C(=O)[C@@](C)(O)C[C@H](C)[C@H](O[C@@H]3O[C@H](C)C[C@](O)([C@H](C)O)[C@H]3O)[C@@H](C)/C=C/C(=O)O[C@@H]2C)[C@@H]1OC |
